According to patent US10836791B2, “Compounds” (DSM IP ASSETS B.V., priority 2016, dated 2020):
Square brackets hold non-standard residues; d marks the D form. * marks the point of attachment. Palmitoyl = CCCCCCCCCCCCCCCC(=O)*; Octanoyl = CCCCCCCC(=O)*; Hexanoyl = CCCCCC(=O)*

Tested on: Normal human epidermal melanocytes, lightly pigmented
Assay: Melanin inhibition in L-tyrosine-stimulated melanocytes (melanogenese assay)
Type: cell-based
Conditions: L-tyrosine 1 mM, 240 hours incubation, inhibition compared to stimulated control
Experimental: Melanocytes (Normal human epidermal melanocytes, lightly pigmented, 8th passage) were seeded in 24 well plates and cultured for 24 hours in culture medium (M254 supplemented with PMA free HMGS-2, Insulin 5 μg/ml, Penicilline 50 U/ml-Streptomycine 50 μg/ml Gentamycine 25 μg/ml) at 37° C., 5% CO2. The medium was then replaced by culture medium containing the test compounds or the reference (lipoic acid at 5 μg/ml) in presence of L-tyrosine (1 mM). The cells were then incubated for 240 hours with 2 renewals of culture medium containing the test compounds or the reference in presence of L-tyrosine after 96 and 168 hours of incubation. A non-stimulated and a stimulated control were performed in parallel. All experimental conditions were performed in n=3, except for control conditions in n=6. At the end of incubation, the culture supernatants were removed and the melanin was extracted by cell lysis using a 0.5 N NaOH solution. The optical density (OD) of each experimental point was measured at 405 nm and melanin quantity was calculated using melanin standards (standard curve from 0.39 to 100 μg/ml melanin). Results were expressed in μg/ml of melanin and in percentage of inhibition compared to stimulated control.

Row | Substance | Melanin inhibition [%] (1 μM test compound) | Melanin inhibition [%] (10 μM test compound)
1 | H-[dW]-Arg-Leu-NH2 [Ref-5] | −3 | 14
2 | Hexanoyl-[dW]-Arg-Leu-NH2 [Ref-2] | 18 | 8
3 | Octanoyl-[dW]-Arg-Leu-NH2 [Ref-4] | 13 | 
4 | Palmitoyl-D-Trp-Arg-ATMPA-NH2 [Ref-6] | −3 | −12
5 | Palmitoyl-D-Trp-NLe-Leu-NH2 [Ref-3] | 13 | 
6 | Palmitoyl-[dW]-Met-Leu-NH2 [Ref-1] | 25 | 43
